Activity calls are given as the source filed them.
Assays:
[1] = Stability of compound assessed as porcine liver esterase mediated propofol release by measuring half life at 1 mg/ml by HPLC analysis; format: ADME, Sus scrofa; settings: pig, isolated protein
[2] = target: T1, Sodium channel protein type 10 subunit alpha (Homo sapiens, UniProt Q9Y5Y9); assay: Binding affinity to Nav1.8 (unknown origin) expressed in HEK293T cells assessed as retention time of compound at 1 mg/ml by cell membrane chromatography; format: cell membranes
T1 sequence (Q9Y5Y9 whole entry, looked up): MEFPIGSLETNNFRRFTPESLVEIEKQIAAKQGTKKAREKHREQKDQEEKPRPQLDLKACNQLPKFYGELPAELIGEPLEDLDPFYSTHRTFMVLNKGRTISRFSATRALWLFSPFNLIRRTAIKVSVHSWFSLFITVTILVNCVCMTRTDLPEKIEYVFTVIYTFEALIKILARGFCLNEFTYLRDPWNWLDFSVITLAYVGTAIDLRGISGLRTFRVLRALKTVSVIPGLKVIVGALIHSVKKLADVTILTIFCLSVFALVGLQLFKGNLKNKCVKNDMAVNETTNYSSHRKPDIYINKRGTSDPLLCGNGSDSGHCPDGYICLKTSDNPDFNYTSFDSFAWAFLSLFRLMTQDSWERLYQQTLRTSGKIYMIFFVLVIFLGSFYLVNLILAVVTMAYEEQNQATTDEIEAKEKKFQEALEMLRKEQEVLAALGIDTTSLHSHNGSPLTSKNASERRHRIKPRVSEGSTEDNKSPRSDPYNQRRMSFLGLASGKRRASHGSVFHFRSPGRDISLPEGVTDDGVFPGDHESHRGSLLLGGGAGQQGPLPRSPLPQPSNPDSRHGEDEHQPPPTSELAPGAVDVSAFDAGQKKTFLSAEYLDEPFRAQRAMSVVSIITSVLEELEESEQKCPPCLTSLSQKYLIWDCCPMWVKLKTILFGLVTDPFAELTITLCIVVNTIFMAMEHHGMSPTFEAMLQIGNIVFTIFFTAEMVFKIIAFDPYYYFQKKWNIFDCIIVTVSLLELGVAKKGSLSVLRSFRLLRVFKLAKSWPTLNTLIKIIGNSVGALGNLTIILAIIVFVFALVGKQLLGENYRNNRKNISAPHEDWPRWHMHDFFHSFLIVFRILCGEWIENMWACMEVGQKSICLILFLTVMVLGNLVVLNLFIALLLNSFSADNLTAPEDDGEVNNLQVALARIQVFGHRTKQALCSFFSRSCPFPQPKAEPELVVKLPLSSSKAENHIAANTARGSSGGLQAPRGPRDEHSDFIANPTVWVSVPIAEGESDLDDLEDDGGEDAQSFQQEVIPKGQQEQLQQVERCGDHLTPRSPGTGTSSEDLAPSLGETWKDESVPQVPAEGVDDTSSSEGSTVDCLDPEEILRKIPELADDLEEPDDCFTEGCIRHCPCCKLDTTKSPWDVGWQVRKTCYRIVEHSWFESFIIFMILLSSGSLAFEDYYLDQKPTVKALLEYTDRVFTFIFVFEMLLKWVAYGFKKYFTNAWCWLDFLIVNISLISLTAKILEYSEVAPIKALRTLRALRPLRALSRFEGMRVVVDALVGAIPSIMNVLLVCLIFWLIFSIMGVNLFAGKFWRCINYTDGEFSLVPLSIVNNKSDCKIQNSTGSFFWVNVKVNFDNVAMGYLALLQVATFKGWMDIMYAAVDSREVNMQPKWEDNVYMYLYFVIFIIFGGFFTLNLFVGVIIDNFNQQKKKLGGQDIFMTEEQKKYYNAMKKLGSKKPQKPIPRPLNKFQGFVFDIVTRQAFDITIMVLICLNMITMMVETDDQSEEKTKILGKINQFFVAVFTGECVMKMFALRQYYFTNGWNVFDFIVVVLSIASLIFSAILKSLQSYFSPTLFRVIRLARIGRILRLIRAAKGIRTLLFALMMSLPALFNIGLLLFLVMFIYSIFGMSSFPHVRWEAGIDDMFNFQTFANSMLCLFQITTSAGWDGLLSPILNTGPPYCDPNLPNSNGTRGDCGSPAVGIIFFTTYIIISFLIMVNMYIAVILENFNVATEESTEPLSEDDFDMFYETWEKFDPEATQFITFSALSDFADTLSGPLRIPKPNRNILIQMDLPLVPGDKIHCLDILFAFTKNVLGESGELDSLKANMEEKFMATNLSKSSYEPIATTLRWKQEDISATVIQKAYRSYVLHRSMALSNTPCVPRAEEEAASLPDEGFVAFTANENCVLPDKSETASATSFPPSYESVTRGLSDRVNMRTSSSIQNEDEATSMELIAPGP

[3] = target: T1, Sodium channel protein type 10 subunit alpha; assay: Inhibition of Nav1.8 channel (unknown origin) at -120 mV conditioning pulse by voltage clamp electrophysiological recording
Mus musculus [4] = assay: Analgesic effect in ICR mouse model of CFA-induced chronic inflammatory pain assessed as increase in paw withdrawal threshold at 0.07 mmol/kg, ip measured upto 90 mins by Von Frey test; format: functional, organism-based
[5] = target: T1, Sodium channel protein type 10 subunit alpha; assay: Binding affinity to Nav1.8 (unknown origin) expressed in HEK293T cells at 1 mg/ml by cell membrane chromatography; format: cell membranes
[6] = Toxicity in ICR mouse assessed as survival rate at 1.5 times ED50 administered intravenously; settings: in vivo, route iv
Mus musculus [7] = assay: Anesthetic effect in iv dosed ICR mouse by up-and-down method; format: functional
[8] = target: GABA-A receptor; alpha-1/beta-2/gamma-2 (Homo sapiens) (UniProt P14867+P47870+P18507); assay: Agonist activity at alpha1beta2gamma2 GABA-A receptor (unknown origin) at 10 uM at -70 mV holding potential by electrophysiological recording; format: protein-complex assay; settings: filed as agonist

SMILES | t1/2 [1] [min] | Retention time [2] [min] | also measured
CC(C)c1cccc(C(C)C)c1OC(=O)CN1CCN(C(C)C)CC1.Cl | > 120 |  | 
CC(C)c1cccc(C(C)C)c1OC(=O)OCCN1CCCCC1 |  | 1 | 
CCCN(CCO)CCOC(=O)Oc1c(C(C)C)cccc1C(C)C.Cl | < 8.609 |  | 
CC(C)c1cccc(C(C)C)c1C(=O)c1ccc2c(CN(C)C)c[nH]c2c1 |  |  | inhibition [3]: Active
CC(C)c1cccc(C(C)C)c1OC(=O)OCCN1CCN(C(C)C)CC1.Cl | > 120 |  | 
CC1CC(C)CN(CC(=O)Oc2c(C(C)C)cccc2C(C)C)C1 (configuration not stated) |  | > 110 | 
CC(C)c1cccc(C(C)C)c1C(=O)c1ccc(N(C)CCS(=O)(=O)O)cc1 |  |  | inhibition [3]: Active; Activity (Mus musculus [4]): Active; Activity [5]: Active
Cc1cc(C(=O)c2c(C(C)C)cccc2C(C)C)ccc1N1C(=O)C=CC1=O |  |  | inhibition [3]: Active
CC1CN(CCC(=O)Oc2c(C(C)C)cccc2C(C)C)CC(C)O1.Cl (configuration not stated) | 1.429 | 3.1 | 
CC(C)c1cccc(C(C)C)c1OC(=O)CCN1CCOCC1 |  | 0.9 | 
CCN(CC)CCC(=O)Oc1c(C(C)C)cccc1C(C)C.Cl | 3.288 | 18.5 | Activity (Mus musculus [4]): Active; survival [6]: 100%; ED50 (Mus musculus [7]): 64 µmol/kg
CCN(CC)CC(=O)Oc1c(C(C)C)cccc1C(C)C.Cl | 4.07 | 11.4 | Activity (Mus musculus [4]): Active; survival [6]: 100%; ED50 (Mus musculus [7]): 77 µmol/kg
CC(C)c1cccc(C(C)C)c1OC(=O)OCCN1CCN(CCO)CC1.Cl | 63.54 |  | 
CC(C)c1cccc(C(C)C)c1OC(=O)CN1CCCCC1 |  |  | Activity (Mus musculus [4]): Active; survival [6]: 100%
COCCN(CCOC)CCOC(=O)Oc1c(C(C)C)cccc1C(C)C.Cl | 6.925 |  | 
COCCN(CCOC)CC(=O)Oc1c(C(C)C)cccc1C(C)C.Cl | 6.712 |  | 
CC1CN(CCOC(=O)Oc2c(C(C)C)cccc2C(C)C)CC(C)O1 (configuration not stated) |  | 11.8 | 
CC1CC(C)CN(CCCOC(=O)Oc2c(C(C)C)cccc2C(C)C)C1.Cl (configuration not stated) | 3.428 |  | 
CC1CN(CC(=O)Oc2c(C(C)C)cccc2C(C)C)CC(C)O1.Cl (configuration not stated) | 7.227 | 0.5 | 
Cc1nccn1Cc1ccc(C(=O)c2c(C(C)C)cccc2C(C)C)o1 |  |  | inhibition [3]: Active
CC(C)c1cccc(C(C)C)c1OC(=O)CN1CCN(CCO)CC1.Cl | > 120 |  | 

SMILES | t1/2 [1] [min] | Retention time [2] [min] | also measured
CC(C)c1cccc(C(C)C)c1C(=O)CSc1cccc[n+]1[O-] |  |  | inhibition [3]: Active
CCN1CCN(CCOC(=O)Oc2c(C(C)C)cccc2C(C)C)CC1.Cl | 4.684 |  | 
Cc1cc(F)ccc1Oc1cc(C(F)(F)F)ccc1C(=O)Nc1ccn(COP(=O)(O)O)c(=O)c1 |  | 2.6 | 
CCN1CCN(CCC(=O)Oc2c(C(C)C)cccc2C(C)C)CC1.Cl | > 120 |  | 
CC(C)c1cccc(C(C)C)c1OC(=O)CN1CCOCC1C (configuration not stated) |  | 0.8 | 
CC(C)c1cccc(C(C)C)c1OC1CCN(c2ccc(C(=O)O)cc2)CC1 |  |  | inhibition [3]: Active
COc1ccc(CNc2c(C(C)C)cccc2C(C)C)cc1OCC(N)=O |  |  | inhibition [3]: Active
CCN1CCN(CC(=O)Oc2c(C(C)C)cccc2C(C)C)CC1.Cl | > 120 |  | 
CC(C)c1cccc(C(C)C)c1O |  |  | Activity (Mus musculus [4]): inactive; Activity [8]: Active
COc1cc(-c2cc(C(=O)O)n[nH]2)ccc1Oc1c(C(C)C)cccc1C(C)C |  |  | inhibition [3]: Active
CC(C)c1cccc(C(C)C)c1Oc1ccc(C[C@@H](N)C(N)=O)cc1 |  |  | inhibition [3]: Active
CC1CC(C)CN(CCOC(=O)Oc2c(C(C)C)cccc2C(C)C)C1.Cl (configuration not stated) | 9.305 | > 110 | 
CC(C)c1cccc(C(C)C)c1OC(=O)CN1CCOCC1 |  | 0.5 | 
CC(C)c1cccc(C(C)C)c1OC(=O)CN1CCS(=O)(=O)CC1.Cl | > 30 |  | 
CC(C)c1cccc(C(C)C)c1OC(=O)CCN1CCN(C(C)C)CC1.Cl | > 120 |  | 
CCN(CC)CCCOC(=O)Oc1c(C(C)C)cccc1C(C)C.Cl | < 8.609 | 37.1 | 
CC1CN(CCCOC(=O)Oc2c(C(C)C)cccc2C(C)C)CC(C)O1 (configuration not stated) |  | 12.4 | 
CC(C)c1cccc(C(C)C)c1OC(=O)OCCN1CCSCC1.Cl | 4.03 |  | 
CC(C)c1cccc(C(C)C)c1OC(=O)CN1CCSCC1.Cl | 22.97 |  | 
Cc1cc(COc2c(C(C)C)cccc2C(C)C)cc(C)c1CN |  |  | inhibition [3]: Active

From ChEMBL document CHEMBL5523756, “Molecular Transformers: Adaptive Multitarget Ligands for Esterase-Induced Transition from Analgesics to Anesthetics” (J Med Chem, 2024)
